Experimental data reported in patent US5298488A, “CM-chitin derivatives and use thereof” (Fuji Photo Film Co., Ltd., priority 1990, dated 1994).
No end group written: not given here. trimellityl CM‑chitin = trimellityl derivative of CM-chitin; succinylated CM‑Chitin = succinylated CM-chitin; CM‑Chitin = carboxymethyl chitin

Key:
[1] = system: human plasma rich in platelet; experiment: Platelet coagulation-inhibitory activity in vitro, transmittance by aggregometer; assay type: cell-based; settings: 37° C., 3 minutes preincubation; for Platelet Coagulation-Inhibitory Action IC50, ADP Stimulation: ADP stimulation (50 μM ADP solution); for Platelet Coagulation-Inhibitory Action IC50, Collagen Stimulation: collagen stimulation (200 μg/ml collagen solution)
Description: The platelet coagulation-inhibitory effect of the CM-chitin derivative of the present invention was assayed, in vitro, using human plasma rich in platelet. The experimental method will be described below.
To fresh human blood, there was added 1/9 volume of a 3.8% sodium citrate solution, the resulting mixture was centrifuged (1000 rpm; for 10 minutes) and the upper layer was separated as a plasma rich in platelet. A lyophilized CM-chitin derivative was dissolved in physiological saline to give a plurality of solutions having various concentrations ranging from 0 to 1.5 mg/ml. Each of the solutions (25 μ1) was added to 200 µl of the plasma, incubated at 37° C. for 3 minutes, then a 50 μM of ADP (adenosine diphosphate) solution or a 200 μg/ml collagen solution was added to determine the extent of coagulation in terms of transmittance determined by an aggregometer.
Rate of Coagulation Inhibition=(1-T/T .)×100%
T . : transmittance observed when a salt of CM-chitin derivative was not added.
T : transmittance observed when a salt of CM-chitin derivative was added.

fibronectin = experiment: Cell adhesion-inhibitory test against fibronectin (competitive assay, number of adhered cells); assay type: cell-based, human; settings: endothelium cells of blood vessel, 37° C., one hour, 0 mg/ml control 160
Text: (§1) A method for determining the activity of the CM-chitin derivatives of the present invention for inhibiting adhesion of cells to fibronectin or vitronectin will be described below. The competitive assays used herein have widely been employed tin the field of biochemistry and are detailed in, for instance, "Method in Enzymology", 1981, 82, pp. 803-831; and J. P. KOKAI Nos. Hei 1-309682 and Hei 2-174797.
(§2) Commercially available fibroneotin (derived from human; purchased from Seikaqaku Kogyo K. K.) and vitronectin (derived from human; purchased from Funakoshi Co., Ltd.) each was diluted to 1.0 μ1/ml and 2.0 μ1/ml with PBS (NaH2 PO4 0.005 M+NaCl 0.07 M), 0.5 ml of the resulting diluted solution was dispensed into a plastic plate having 24 wells and incubated at 37° C. overnight to perform coating of the plate. Then bovine serum albumin (BSA 1%) was added followed by incubation at 37° C. for one hour for inhibiting the occurrence of nonspecific adsorption, then washing with PBS in the usual manner and sufficient drainage to give an adsorption plate.
(§3) A CM-chitin derivative obtained through lyophilization was diluted with Dulbecco's Modified Eagles Medium (hereunder referred to as "DMEM") to give solutions of the CM-chitin derivative having concentrations of 0, 0.25, 0.5, 1.0 and 1.5 mg/ml respectively. Each of the solutions (0.25 ml) was dispensed to the plate prepared above, 0.25 ml of a suspension of endothelium cells of blood vessel (4×10^6 cells/ml) was added to the plate and incubated at 37° C. for one hour to thus cause cohesion of the cells. The plate was washed three times with DMEM medium to remove non-adhesive cells, then the adhered cells were peeled off with a 0.025% EDTA trypsin solution and stained with a 2% Trypan Blue solution to determine the number of the adhered cells.

vitronectin = experiment: Cell adhesion-inhibitory test against vitronectin (competitive assay, number of adhered cells); assay type: cell-based, human; settings: endothelium cells of blood vessel, 37° C., one hour, 0 control 249
Text: as §1, §2
as §3, with “A CM-chitin derivative obtained through lyophilization was diluted with Dulbecco's Modified Eagles Medium (hereunder referred to as "DMEM") to give solutions of the CM-chitin derivative having concentrations of 0, 0.25, 0.5, 1.0 and 1.5 mg/ml respectively.” left out

[2] = concentration 10 mg/ml (so in the source)
[3] = concentration 50 mg/ml (so in the source)
[4] = concentration 100 mg/ml (so in the source)
[5] = concentration 300 mg/ml (so in the source)

Row | Substance | Platelet Coagulation-Inhibitory Action IC50, ADP Stimulation [1] [µg/mL] | Platelet Coagulation-Inhibitory Action IC50, Collagen Stimulation [1] [µg/mL] | Cell Adhesion-Inhibitory effect Against Fibronectin (number of adhered cells) (fibronectin; concentration 0.5 mg/ml) [cell/well] | Cell Adhesion-Inhibitory effect Against Fibronectin (number of adhered cells) (fibronectin; concentration 1.0 mg/ml) [cell/well] | Cell Adhesion-Inhibitory effect Against Fibronectin (number of adhered cells) (fibronectin; concentration 1.5 mg/ml) [cell/well] | Cell Adhesion-Inhibitory effect Against Fibronectin (number of adhered cells) (fibronectin; concentration .25 mg/ml) [cell/well] | Cell Adhesion-Inhibitory effect Against Vitronectin (number of adhered cells) (vitronectin; [2]) [cell/well] | Cell Adhesion-Inhibitory effect Against Vitronectin (number of adhered cells) (vitronectin; [3]) [cell/well] | Cell Adhesion-Inhibitory effect Against Vitronectin (number of adhered cells) (vitronectin; [4]) [cell/well] | Cell Adhesion-Inhibitory effect Against Vitronectin (number of adhered cells) (vitronectin; [5]) [cell/well]
1 | Itaconyl Derivative of CM-Chitin Arg-Gly-Asp-Ser (RGDS; also: conjugated to itaconyl CM-chitin) [CM--chitin derivative-5] | 17 | 12 | 105 | 86 | 72 | 136 | 129 | 91 | 80 | 48
2 | Trimellityl Derivative of CM-Chitin Arg-Gly-Asp-Ser ({trimellityl CM‑chitin}-RGDS) [CM--chitin derivative-6] | 26 | 11 | 107 | 93 | 66 | 127 | 133 | 98 | 71 | 56
3 | Succinylated CM-Chitin Gly-Arg-Gly-Asp-Ser (GRGDS; also: conjugated to succinylated CM-chitin) [CM--chitin derivative-8] | 24 | 14 | 113 | 80 | 59 | 130 | 130 | 95 | 69 | 47
4 | CM-chitin-Arg-Gly-Asp-Ser-Gly-NH2 ({CM‑Chitin}-RGDSG-NH2; also: conjugated to CM-chitin) [CM--chitin derivative-17] | 14 | 5 | 84 | 61 | 35 | 99 | 114 | 76 | 48 | 33
5 | Succinylated CM-Chitin-(Arg-Gly-Asp)3 ({succinylated CM‑Chitin}-RGDRGDRGD) [CM--chitin derivative-11] | 21 | 12 | 125 | 78 | 70 | 143 | 147 | 100 | 73 | 45
6 | CM-Chitin Arg-Gly-Asp-Ser (RGDS; also: conjugated to CM-chitin) [CM--chitin derivative-18] | 21 | 10 | 101 | 75 | 52 | 133 | 125 | 83 | 56 | 44
7 | Maleyl Derivative of CM-Chitin Arg-Gly-Asp-Ser (RGDS; also: conjugated to maleyl CM-chitin) [CM--chitin derivative-3] | 21 | 7 | 100 | 77 | 55 | 123 | 141 | 87 | 69 | 49
8 | CM-Chitin Gly-Arg-Gly-Asp-Ser (GRGDS; also: conjugated to CM-chitin) [CM--chitin derivative-7] | 30 | 16 | 98 | 84 | 71 | 119 | 143 | 85 | 79 | 55
9 | Succinylated CM-Chitin-(Arg-Gly-Asp)2 ({succinylated CM‑Chitin}-RGDRGD) [CM--chitin derivative-10] | 20 | 13 | 110 | 87 | 73 | 122 | 136 | 86 | 71 | 43
